Results from the supplement of paper PMC10307832.

How the values were obtained:
Assay in all cases: relative viability (nuclei count vs DMSO), 5 days (fraction); higher = more cells survive
[1] = compound: C#Cc1cccc(Nc2ncnc3cc(OC)c(OCCCCCCC(=O)NO)cc23)c1 [CUDC-101] + CC1(C)CCC(c2ccc(Cl)cc2)=C(CN2CCN(c3ccc(C(=O)NS(=O)(=O)c4ccc(N[C@H](CCN5CCOCC5)CSc5ccccc5)c(S(=O)(=O)C(F)(F)F)c4)cc3)CC2)C1 [Navitoclax] (partner 0.5 µM)
Outline: (§1)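 After 5 days of treatment, lung cancer cells in 1536-well plates were fixed and stained in a single step (final 0.05% Triton X-100, 1% formaldehyde, 1 ug/ml Hoechst) and their nuclei counted on 4× images. Treatment had been applied by pin tool the day after seeding as one drug alone or as a fixed anchor-drug dose with five library-drug doses (not always all listed) in √10 steps. Relative viability is the nuclei count of treated wells divided by that of vehicle wells, and values are medians of duplicate plates.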

[2] = compound: COc1cc(N2CCC(N3CCN(C)CC3)CC2)ccc1Nc1ncc(Cl)c(Nc2ccccc2S(=O)(=O)C(C)C)n1 [NVP-TAE684] + C[C@]1(O)C[C@@H](c2nc(-c3ccc4ccc(-c5ccccc5)nc4c3)c3c(N)nccn32)C1 [Linsitinib] (partner 1 µM)
Outline: as §1

[3] = compound: COc1cc2/c(=N/c3ccc(Br)cc3F)nc[nH]c2cc1OCC1CCN(C)CC1 [Vandetanib] + O=C(c1cc(Cc2n[nH]c(=O)c3ccccc23)ccc1F)N1CCN(C(=O)C2CC2)CC1 [Olaparib] (partner 8 µM)
Outline: as §1

[4] = compound: COc1cc(N2CCC(N3CCN(C)CC3)CC2)ccc1Nc1ncc(Cl)c(Nc2ccccc2S(=O)(=O)C(C)C)n1 [NVP-TAE684] + NC(=O)Nc1cc(-c2cccc(F)c2)sc1C(=O)N[C@H]1CCCNC1 [AZD7762] (partner 0.2 µM)
Outline: as §1

[5] = compound: COc1cc(N2CCC(N3CCN(C)CC3)CC2)ccc1Nc1ncc(Cl)c(Nc2ccccc2S(=O)(=O)C(C)C)n1 [NVP-TAE684] + COc1cccc2cc(-c3nc([C@H]4CC[C@H](C(=O)O)CC4)n4ncnc(N)c34)[nH]c12 [OSI-027] (partner 0.5 µM)
Outline: as §1

Cell Line | relative viability ([1]; first compound 0.01 µM) | relative viability ([1]; first compound 0.03162 µM) | relative viability ([1]; first compound 0.1 µM) | relative viability ([1]; first compound 0.3162 µM) | relative viability ([1]; first compound 1 µM) | relative viability ([2]; first compound 0.2 µM) | relative viability ([2]; first compound 0.6325 µM) | relative viability ([2]; first compound 2 µM) | relative viability ([3]; first compound 0.02 µM) | relative viability ([3]; first compound 0.06325 µM) | relative viability ([3]; first compound 0.2 µM) | relative viability ([3]; first compound 0.6325 µM) | relative viability ([3]; first compound 2 µM) | relative viability ([4]; first compound 0.2 µM) | relative viability ([4]; first compound 0.6325 µM) | relative viability ([4]; first compound 2 µM) | relative viability ([5]; first compound 0.2 µM) | relative viability ([5]; first compound 0.6325 µM) | relative viability ([5]; first compound 2 µM)
HCC-44 | 0.836 | 0.933 | 0.877 | 1.06 | 0.827 | 0.785 | 0.674 | 0.482 | 0.914 | 0.944 | 0.948 | 0.973 | 1 | 1.03 | 1.08 | 1.03 | 0.525 | 0.428 | 0.218
IA-LM | 0.685 | 0.806 | 0.698 | 0.832 | 0.281 | 0.386 | 0.503 | 0.627 | 0.969 | 0.874 | 0.864 | 0.867 | 0.849 | – | – | – | – | – | –
LCLC-103H | – | – | – | – | – | 1.06 | 1.23 | 1.15 | 0.729 | 0.657 | 0.529 | 0.698 | 0.707 | 0.877 | 0.771 | 0.664 | 0.445 | 0.467 | 0.372
NCI-H358 | – | – | – | – | – | 0.73 | 0.488 | 0.274 | 0.552 | 0.527 | 0.646 | 0.472 | 0.319 | 0.55 | 0.298 | 0.225 | 0.718 | 0.616 | 0.15
NCI-H520 | 1.04 | – | 1.03 | 0.987 | 0.316 | 0.911 | 0.986 | 0.45 | 0.299 | 0.343 | 0.379 | 0.35 | 0.324 | – | – | – | 0.281 | 0.287 | 0.199
NCI-H522 | – | – | – | – | – | – | – | – | 0.604 | 0.703 | 0.689 | 0.743 | 0.605 | 0.91 | 0.938 | 0.744 | – | 0.702 | 0.554
NCI-H650 | – | – | – | – | – | 0.982 | 0.638 | 0.652 | 0.359 | 0.361 | 0.392 | 0.409 | 0.445 | 1.03 | 0.848 | 0.853 | 0.441 | 0.458 | 0.332
NCI-H661 | – | – | – | – | – | 0.454 | 0.58 | 0.625 | 0.793 | 0.696 | 0.726 | 0.759 | 0.735 | – | – | – | 0.717 | 0.821 | 0.585
NCI-H1299 | 1.05 | 0.992 | 1.12 | 1.06 | 1.02 | 0.915 | 1.02 | 0.909 | 0.983 | 0.928 | 0.924 | 0.933 | 0.981 | – | – | – | – | – | –
NCI-H1563 | – | – | – | – | – | 1.07 | 1.25 | – | – | – | – | – | – | – | – | – | 0.736 | 0.678 | 0.596
NCI-H1623 | – | – | – | – | – | – | – | – | – | – | – | – | – | – | – | – | 0.337 | 0.402 | 0.34
NCI-H1648 | – | – | – | – | – | – | – | – | 0.591 | 0.771 | 0.91 | 1.15 | 0.761 | 0.677 | 0.56 | 0.399 | 0.255 | 0.226 | 0.216
NCI-H1650 | 1.22 | 0.967 | 1.28 | 1.1 | 0.85 | – | – | – | 0.753 | 0.827 | 0.756 | 0.792 | 0.572 | – | – | – | 0.374 | 0.437 | 0.217
NCI-H1703 | 0.968 | – | 1.21 | 1.59 | 0.794 | 0.862 | 0.932 | 0.588 | 0.458 | 0.267 | 0.385 | 0.342 | 0.303 | 0.0907 | 0.102 | 0.0966 | – | – | –
NCI-H2009 | 1.23 | 1.05 | 1.18 | 1.16 | 1.1 | 1.08 | 1.21 | 0.986 | 0.649 | 0.668 | 0.658 | 0.688 | 0.716 | – | – | – | 0.603 | 0.449 | 0.302
NCI-H2023 | 1.02 | 0.983 | 0.993 | 1 | 0.964 | 0.517 | 0.669 | 0.265 | 0.464 | 0.473 | 0.484 | 0.466 | 0.479 | – | – | – | 0.412 | 0.258 | 0.101
NCI-H2170 | 0.628 | 0.636 | 0.648 | 0.599 | 0.313 | – | – | – | 0.639 | 0.615 | 0.546 | 0.609 | 0.663 | 1.04 | 0.814 | 0.785 | 0.703 | 0.579 | 0.63
NCI-H2228 | 0.941 | 0.646 | 0.607 | 1.11 | 0.846 | 0.458 | 0.321 | 0.285 | 0.65 | 0.566 | 0.719 | 0.661 | 0.559 | – | – | – | 0.247 | 0.137 | 0.16
NCI-H2342 | – | – | – | – | – | – | – | – | 0.482 | 0.41 | 0.477 | 0.415 | 0.438 | 0.463 | 0.437 | 0.349 | – | 0.585 | 0.34
SK-LU-1 | 1.03 | 0.774 | 0.852 | 0.662 | 0.489 | 1.19 | 1.2 | 0.693 | 0.496 | 0.313 | 0.54 | 0.437 | 0.597 | – | – | – | 0.31 | 0.37 | 0.181
SK-MES-1 | 1.27 | 1.37 | 1.28 | 1.16 | 1.12 | 0.985 | 1.05 | 0.837 | 0.71 | 0.676 | 0.708 | 0.606 | 0.424 | – | – | – | 0.447 | 0.529 | 0.352
SW 900 | – | – | – | – | – | – | – | – | 0.804 | 0.784 | – | 0.88 | 0.815 | 0.526 | 0.476 | 0.445 | 0.536 | 0.425 | 0.703
SW 1573 | 1.2 | 0.897 | 0.951 | 1.23 | 0.901 | 0.907 | 0.692 | 0.795 | 0.434 | 0.416 | 0.393 | 0.521 | 0.489 | – | – | – | 0.741 | 0.455 | 0.226
